Measurements published in ChEMBL document CHEMBL1201862, “PubChem BioAssay data set” (2004).
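These data come from cells grown in 96-well plates and exposed to compound for 48 hours at five concentrations. GI50 marks 50% less growth.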 Activity calls are given as the source filed them. Rule as the data show it: active = GI50 up to about 1.1 µM and inactive = higher.

Tests used:
Assay in all cases: growth of human tumour cells (NCI), 48 h
Malme-3M = tested on: Malme-3M
SK-MEL-2 = tested on: SK-MEL-2
SK-OV-3 = tested on: SK-OV-3
OVCAR-3 = tested on: OVCAR-3
SF-268 = tested on: SF-268
SN12C = tested on: SN12C
HCT-15 = tested on: HCT-15
ACHN = tested on: ACHN
UACC-257 = tested on: UACC-257
A549 = tested on: A549
UO-31 = tested on: UO-31
HCT-116 = tested on: HCT-116
M14 = tested on: M14
OVCAR-8 = tested on: OVCAR-8
OVCAR-4 = tested on: OVCAR-4
NCI-H460 = tested on: NCI-H460
SK-MEL-5 = tested on: SK-MEL-5
NCI-H522 = tested on: NCI-H522
HCC 2998 = tested on: HCC 2998

Measured: GI50

CC(=O)OCC(OC(C)=O)C(OC(C)=O)C(OC(C)=O)C(=O)CNn1c(-c2ccc(C)cc2)nc2ccccc2c1=O (centres undefined)
> 100 µM: HCT-15
inactive: Malme-3M > 100 µM | SK-MEL-2 > 100 µM | SK-OV-3 > 100 µM | OVCAR-3 > 100 µM | SF-268 > 100 µM | SN12C 76 µM | ACHN > 100 µM | UACC-257 > 100 µM | A549 > 100 µM | UO-31 > 100 µM | HCT-116 > 100 µM | M14 > 100 µM | OVCAR-8 > 100 µM | OVCAR-4 > 100 µM | NCI-H460 > 100 µM | SK-MEL-5 > 100 µM | NCI-H522 57.9 µM

CCOC(=O)c1s/c(=N\Nc2nc3ccccc3cc2C2OCCO2)n(Cc2ccccc2)c1C
> 100 µM: HCT-15
inactive: Malme-3M > 100 µM | SK-MEL-2 > 100 µM | SK-OV-3 > 100 µM | OVCAR-3 > 100 µM | SF-268 > 100 µM | SN12C > 100 µM | ACHN > 100 µM | UACC-257 > 100 µM | A549 > 100 µM | UO-31 > 100 µM | HCT-116 > 100 µM | M14 > 100 µM | OVCAR-8 > 100 µM | OVCAR-4 > 100 µM | NCI-H460 > 100 µM | SK-MEL-5 > 100 µM | NCI-H522 > 100 µM

N#Cc1ccccc1NC(=O)c1ccccc1
inactive: Malme-3M > 100 µM | SK-MEL-2 > 100 µM | OVCAR-3 > 100 µM | SF-268 > 100 µM | SN12C > 100 µM | ACHN > 100 µM | UACC-257 > 100 µM | A549 > 100 µM | HCT-116 > 100 µM | OVCAR-8 > 100 µM | OVCAR-4 > 100 µM | NCI-H460 > 100 µM | SK-MEL-5 > 100 µM
> 100 µM: HCT-15

Nc1nc(SCCC/C=C/B(O)O)nc2c1ncn2C1OC(COP(=O)(O)O)C(O)C1O (centres undefined)
inactive: Malme-3M > 203 µM | SK-MEL-2 > 203 µM | SK-OV-3 > 203 µM | OVCAR-3 > 203 µM | SF-268 > 203 µM | SN12C > 203 µM | ACHN > 203 µM | UACC-257 > 203 µM | A549 > 203 µM | UO-31 > 203 µM | HCT-116 > 203 µM | M14 > 203 µM | OVCAR-8 > 203 µM | OVCAR-4 > 203 µM | NCI-H460 > 203 µM | SK-MEL-5 > 203 µM | NCI-H522 115 µM
> 203 µM: HCT-15

O=C1NC(=O)C(=Cc2c3ccccc3cc3ccccc23)C(=O)N1
inactive: SK-OV-3 > 100 µM | SF-268 > 100 µM | SN12C > 100 µM | ACHN > 100 µM | A549 > 100 µM | UO-31 > 100 µM | HCT-116 > 100 µM | M14 > 100 µM | OVCAR-8 > 100 µM | NCI-H460 > 100 µM | SK-MEL-5 > 100 µM | NCI-H522 > 100 µM
> 100 µM: HCT-15

Cc1ccc(C(=O)C#Cc2cnc(O)nc2O)cc1
inactive: Malme-3M 5.56 µM | SK-MEL-2 14.4 µM | SK-OV-3 25.2 µM | OVCAR-3 13.5 µM | SF-268 13.1 µM | SN12C 4.55 µM | ACHN 15.6 µM | HCC 2998 12.7 µM | UACC-257 14.2 µM | A549 18.3 µM | UO-31 17.4 µM | HCT-116 5.94 µM | M14 13.2 µM | OVCAR-8 12.4 µM | OVCAR-4 21.8 µM | NCI-H460 16.7 µM | SK-MEL-5 13.6 µM
13.8 µM: HCT-15

O=C(CCc1ccc(O)cc1)c1c(O)cc(O)cc1OC1OC(CO)C(O)C(O)C1O (centres undefined)
inactive: Malme-3M > 100 µM | SK-MEL-2 > 100 µM | SK-OV-3 > 100 µM | OVCAR-3 > 100 µM | SF-268 > 100 µM | ACHN > 100 µM | HCC 2998 > 100 µM | UACC-257 > 100 µM | A549 > 100 µM | UO-31 > 100 µM | HCT-116 > 100 µM | M14 > 100 µM | OVCAR-4 > 100 µM | SK-MEL-5 > 100 µM
> 100 µM: HCT-15
